Source: patent US7090995B2, “Molecules and methods using same for measuring non-transferrin bound iron” (Yissum Research Development Company of the Hebrew …, priority 2000, dated 2006)
Blank lines part the entries; values can stand above or below the compound they belong to.

Tests used:
[1] = Iron binding (quenching of fluorescence) by fluorescein-transferrin preparations with and without oxalate and gallium; conditions: 0.6 μM indicator, 10 mM oxalate and gallium, FIGS. 8A-B
Protocol: FIGS. 8A–B graphically depict the ability of two particular preparations of iron-free-transferrin, essentially Fl-TF (FIG. 8A) and Fl-aTF (FIG. 8B), to detect free iron in the presence and absence of oxalate and Gallium [Ga(III)]. 0.6 μM of each of the indicator molecules were tested under three experimental conditions: with no addition (squares), with 10 mM Na-oxalate (circles) and with 10 mM Na-oxalate and 0.1 mM GaCl3 (triangles), Quenching of fluorescence as a function of iron concentration was measured and presented as % Original Fluorescence.
Preparation of fluorescein-conjugated apo-Transferrin (Fl-aTF) and iron depleted Transferrin (FL-TF)—100 μM 5-(4,6-dichlorotriazinyl) aminofluorescein (DCTAF, Molecular Probes, Eugene, Oreg.) from a freshly prepared 10 mM solution in dimethylsulfoxide was added to a solution containing 8 mg/ml apo-Transferrin (Kamada, Kibbutz Kama, Israel) (100 μM, based on a, MW of 80 kD) in 100 mM NaHCO3, pH 8.4. Following a 30 minute incubation at 37° C. in the dark, 5 mM L-lysine was added from a solution containing 0.5 M L-lysine, pH 8, in order to terminate the coupling reaction. The product Fl-aTF was extensively dialyzed against HBS, divided into aliquots and stored frozen at −20° C. The final preparation yielded a single fluorescent band of approximately 80 kD in polyacrylamide electrophoresis determinations. The fluoroscein concentration in Fl-aTF was determined to be 84 μM by measuring absorbance at 496 nm, using DCTAF as standard solution, giving a ratio of aTf: fluoroscein of 1:0.84.
FL-TF was prepared in an identical manner as FL-aTF, with the difference that iron-saturated human transferrin (from Kamada, Kibbutz Kama, Israel) was used instead of iron-free transferrin for reaction with DCTAF. The FL-TF was rendered iron-free by exhaustive dialysis against 37.5 mM Na-Citrate, pH 5.0, and then the citrate was removed from the preparation by exhaustive dialysis against HBS. […]

[2] = DCI in serum/plasma of Thalassemia patients undergoing oral L1-chelation therapy; type: in vivo, human; conditions: Thalassemia patients (Thailand, Israel), therapeutic oral doses of L1, minutes to hours after administration; FIGS. 6A-B
Text: FIG. 5 is a schematic illustration of another embodiment of the method of the present invention directed at detecting iron mobilized from tissues into plasma by chelators such as L1 (also called deferriprone). In the example depicted, a serum sample was taken from a patient following L1 oral administration. The iron mobilized in vivo into the plasma by L1 is transferred to Fl-DFO in vitro, whereupon Fl-DFO's fluorescence is quenched commensurately with the amount of iron transferred. The basic assay is as depicted in FIG. 2. FIGS. 6A–B are graphs depicting the DCI levels in plasma of thalassemic patients (3 from Israel and 3 from Thailand, FIGS. 6B and A, respectively) treated with therapeutic doses of L1 (per os). Sampled were retrieved minutes to hours following L1 administration. […] When assessed under actual clinical conditions, with serum samples from Thalassemia patients (each patient is represented by a line in the graph) undergoing L1-chelation therapy in Thailand (FIG. 6A) and Israel (FIG. 6B), the methods of the present invention accurately reflected the L1-bound iron in the patient's plasma. DCI was detected in the samples assayed as described hereinabove (Example 2), and DCI values determined from the standard calibration curve (FIG. 4). […]

quenching of fluorescence by iron in the presence of gallium ([1]; listed as Fl-aTf): not affected by Gallium
Compound: 5-4,6-dichlorotriazinyl aminofluorescein (DCTF)-apo-transferrin [Fl-aTF]
quenching of fluorescence by iron in the presence of gallium ([1]; listed as FL-aTF): strongly quenched by low concentrations of iron in the presence of gallium

Compound: Fl-TF: fluorescein attached to iron-saturated human transferrin, then rendered iron-free; similar to conventional fluoresceinated Transferrin
quenching of fluorescence by iron in the presence of gallium [1]: inhibition of Fl-TF fluorescence quenching by gallium was clearly observed

Compound: Cc1c(O)c(=O)ccn1C [L1]
DCI in patient plasma after L1 administration [2]: increases in DCI
